Like-named read-outs stand apart in the source and are kept apart here. Blank lines part the entries; values can stand above or below the compound they belong to.
How the values were obtained:
[1] = cloud-point
[2] = for AcOH in DEB / AcOH in water (final in DEB) / D = AcOH in DEB/AcOH in water / Water in DEB: 25° C., single extraction
[3] = Distribution of ethanol and isobutanol between water and DEB phases; assay type: physicochemical; conditions: for Amount of EtOH in water (final) / D = conc. of EtOH in DEB/conc. of EtOH in water / Amount of EtOH in DEB (final) / Distribution coefficient of isobutanol (DEB/water) / Amount of iBuOH in water (final) / Amount of iBuOH in DEB (final): single extraction; for Amount of EtOH in DEB (final) / Amount of iBuOH in DEB (final): mass balance
Protocol: The amount of ethanol and isobutanol in water phase was measured using HPLC (see above for details). The concentrations of ethanol taken were: 8, 6, 3, 2, 1 and 0.5 wt %.
Distribution coefficient is reported on the basis of HPLC results of aqueous phase and that of mass balance of both the phases. Experiments are currently underway to determine the amount of ethanol, iso butanol in DEB phase. Gas chromatography will be used to quantify the amount of ethanol and isobutanol present in the DEB phase. Water measurements will be done using a Karl Fischer apparatus.
Here also, distribution coefficient is reported on the basis of HPLC results of aqueous phase and that of mass balance of both the phase.

[4] = Distribution of hydroxymethylfurfural and furfural between water and DEB phases; assay type: physicochemical; conditions: 25° C., single extraction; for Amount of furfural in DEB phase (g) (final in DEB phase) / Amount of HMF in DEB phase (g) (final in DEB phase): mass balance
Protocol: The amounts of hydroxymethylfurfural and furfural in water phase were measured
using HPLC (see above for details). […] Distribution coefficient is reported on the basis of HPLC results of aqueous phase and that of mass balance of both the phases. The amount of hydroxymethylfurfural in DEB phase may be quantified using gas chromatography. Water measurements of the separated DEB phase containing hydroxymethylfurfural may be carried out using a Karl Fischer apparatus.
Distribution coefficient is reported on the basis of HPLC results of aqueous phase and that of mass balance of both the phases. The amount of furfural in DEB phase may be quantified using gas chromatography. Water measurements of the separated DEB phase containing furfural may be carried out using a Karl Fischer apparatus.

[5] = 4.91 g DEB, 0.33 g AcOH initially in 4.1 g water
[6] = 5.8 g DEB, 0.17 g AcOH initially in 4.2 g water
[7] = 6.5 g DEB, 0.07 g AcOH initially in 4.3 g water
[8] = 4.63 g DEB, 0.99 g EtOH initially in 4.62 g water
[9] = 4.71 g DEB, 0.31 g EtOH initially in 4.70 g water
[10] = 4.85 g DEB, 0.16 g EtOH initially in 4.86 g water
[11] = 4.92 g DEB, 0.11 g EtOH initially in 4.89 g water
[12] = 4.97 g DEB, 0.06 g EtOH initially in 4.98 g water
[13] = 5.02 g DEB, 0.03 g EtOH initially in 5.03 g water
[14] = 4.98 g DEB, 0.0491 g furfural initially in 5.01 g water
[15] = 5.02 g DEB, 0.0242 g furfural initially in 4.98 g water
[16] = 5.11 g DEB, 0.0141 g furfural initially in 5.05 g water
[17] = 5.01 g DEB, 0.0132 g HMF initially in 5.01 g water
[18] = 5.01 g DEB, 0.0512 g HMF initially in 5.11 g water
[19] = 5.02 g DEB, 0.0251 g HMF initially in 5.03 g water
[20] = 4.76 g DEB, 0.26 g iBuOH initially in 4.74 g water
[21] = 4.88 g DEB, 0.13 g iBuOH initially in 4.89 g water
[22] = 4.93 g DEB, 0.071 g iBuOH initially in 4.92 g water
[23] = 5.08 g DEB, 0.028 g iBuOH initially in 5.03 g water

Compound: CCCCOCCOCCOCCCC [DEB, diethylene glycol dibutyl ether]
DEB solubility in water [1]: less than 10 ppm

Compound: CC(=O)O [acetic acid]
AcOH in DEB [2, 5]: 0.171 grams
AcOH in water (final in DEB) [2, 5]: 0.163 grams
D = AcOH in DEB/AcOH in water [2, 5]: 1.1
AcOH in DEB [2, 6]: 0.088 grams
AcOH in water (final in DEB) [2, 6]: 0.082 grams
D = AcOH in DEB/AcOH in water [2, 6]: 1.08
AcOH in DEB [2, 7]: 0.033 grams
AcOH in water (final in DEB) [2, 7]: 0.034 grams
D = AcOH in DEB/AcOH in water [2, 7]: 0.98

Compound: CCO [ethanol]
Amount of EtOH in water (final) [3, 8]: 0.51 grams
D = conc. of EtOH in DEB/conc. of EtOH in water [3, 8]: 0.94
Amount of EtOH in DEB (final) [3, 8]: 0.48 grams
Amount of EtOH in water (final) [3, 9]: 0.15 grams
D = conc. of EtOH in DEB/conc. of EtOH in water [3, 9]: 1.06
Amount of EtOH in DEB (final) [3, 9]: 0.16 grams
Amount of EtOH in water (final) [3, 10]: 0.073 grams
D = conc. of EtOH in DEB/conc. of EtOH in water [3, 10]: 1.2
Amount of EtOH in DEB (final) [3, 10]: 0.087 grams
Amount of EtOH in water (final) [3, 11]: 0.052 grams
D = conc. of EtOH in DEB/conc. of EtOH in water [3, 11]: 1.11
Amount of EtOH in DEB (final) [3, 11]: 0.058 grams
Amount of EtOH in water (final) [3, 12]: 0.031 grams
D = conc. of EtOH in DEB/conc. of EtOH in water [3, 12]: 0.93
Amount of EtOH in DEB (final) [3, 12]: 0.029 grams
Amount of EtOH in water (final) [3, 13]: 0.014 grams
D = conc. of EtOH in DEB/conc. of EtOH in water [3, 13]: 1.16
Amount of EtOH in DEB (final) [3, 13]: 0.016 grams

Compound: O=Cc1ccco1 [furfural]
Amount of furfural in water phase (g) (final) [4, 14]: 0.0249 g
D = conc. of furfural in DEB/conc. of furfural in water [4, 14]: 0.98
Amount of furfural in DEB phase (g) (final in DEB phase) [4, 14]: 0.0242 g
Amount of furfural in water phase (g) (final) [4, 15]: 0.0161 g
D = conc. of furfural in DEB/conc. of furfural in water [4, 15]: 0.91
Amount of furfural in DEB phase (g) (final in DEB phase) [4, 15]: 0.0088 g
Amount of furfural in water phase (g) (final) [4, 16]: 0.0069 g
D = conc. of furfural in DEB/conc. of furfural in water [4, 16]: 1.03
Amount of furfural in DEB phase (g) (final in DEB phase) [4, 16]: 0.0071 g

Compound: O=Cc1ccc(CO)o1 [hydroxymethylfurfural]
Amount of HMF in water phase (g) (final) [4, 17]: 0.0083 g
D = conc. of HMF in DEB/conc. of HMF in water [4, 17]: 0.61
Amount of HMF in DEB phase (g) (final in DEB phase) [4, 17]: 0.0050 g
Amount of HMF in water phase (g) (final) [4, 18]: 0.0321 g
D = conc. of HMF in DEB/conc. of HMF in water [4, 18]: 0.59
Amount of HMF in DEB phase (g) (final in DEB phase) [4, 18]: 0.0191 g
Amount of HMF in water phase (g) (final) [4, 19]: 0.0161 g
D = conc. of HMF in DEB/conc. of HMF in water [4, 19]: 0.54
Amount of HMF in DEB phase (g) (final in DEB phase) [4, 19]: 0.0088 g

Next, values leading:

measured distribution coefficients ([3]; 5, 3, 2, and 1 wt % of isobutanol): 2.5-3.5
concentration in DEB relative to concentration in water at equilibrium ([3]; DEB and water phases in equilibrium): 2-3 times
Distribution coefficient of isobutanol (DEB/water) [3, 20]: 2.71
Distribution coefficient of isobutanol (DEB/water) [3, 21]: 3.33
Distribution coefficient of isobutanol (DEB/water) [3, 22]: 2.72
Distribution coefficient of isobutanol (DEB/water) [3, 23]: 3.59
Amount of iBuOH in water (final) [3, 20]: 0.07 grams
Amount of iBuOH in DEB (final) [3, 20]: 0.19 grams
Amount of iBuOH in water (final) [3, 21]: 0.03 grams
Amount of iBuOH in DEB (final) [3, 21]: 0.10 grams
Amount of iBuOH in water (final) [3, 22]: 0.018 grams
Amount of iBuOH in DEB (final) [3, 22]: 0.053 grams
Amount of iBuOH in water (final) [3, 23]: 0.0061 grams
Amount of iBuOH in DEB (final) [3, 23]: 0.0219 grams
Compound: CC(C)CO [isobutanol]

Water in DEB [2, 5]: 300 µg
Water in DEB [2, 6]: 100 µg
Water in DEB [2, 7]: 90 µg
water content in the DEB phase ([2]; after contact experiment with acetic acid solutions): less than 300 ppm
Compound: water

— patent US8835660B2, “Method for extracting organic compounds from aqueous mixtures” (The Regents of the University of California, priority 2010, dated 2014)
